In US9283160B2, “Stabilization of cosmetic compositions” (BASF SE, priority 2009, dated 2016):

Experiment: Photodegradation of UV absorber combinations, plate-test (recovery after UV irradiation)
Type: physicochemical
Conditions: 0-50 MED UV; for Photostabilization of components (e) and (f) after irradiation (summary of Table 5): in presence of piperazine bi-aminobenzophenone
Method: For the determination of photodegradation the so-called “plate-test” is employed: • 2 μl/cm^2 of the formulations are spread on quartz plates (sand-blasted surface of 2.8 cm^2), and rinsed off the plates after 0, 5, 10, 20, and 50 MED of UV irradiation using an Atlas CPS+ solar simulator.
The substances tagged with an asterix (*) are those the recovery percentages refer to. The percentage of component (a) refers to the active.
The experimental error in terms of the standard deviation is in the range of ±3%.

SMILES | Photostabilization of components (e) and (f) after irradiation (summary of Table 5) | Photostabilization of component (b) after irradiation (summary of Table 4) (combination with piperazine bi-aminobenzophenone, bis-ethylhexyloxyphenol methoxyphenyl triazine added) | Photostabilization of component (b) after irradiation (summary of Table 3) (combination with piperazine bi-aminobenzophenone, octocrylene added)
CCCCC(CC)COC(=O)c1ccc(Nc2nc(Nc3ccc(C(=O)NC(C)(C)C)cc3)nc(Nc3ccc(C(=O)OCC(CC)CCCC)cc3)n2)cc1 (stereo not shown) [di-octyl butamido triazone, Benzoic acid, 4,4′-[[6-[[4-[[(1,1-dimethylethyl)amino]carbonyl]-phenyl]amino]1,3,5-triazine-2,4-diyl]diimino]bis-, bis(2-ethyl-hexyl)ester] | photostabilized in the presence of piperazine bi-aminobenzophenone | – | –
CCCCC(CC)COC(=O)C=Cc1ccc(OC)cc1 (stereo not shown) [ethylhexyl methoxycinnamate, 2-ethylhexyl 4-methoxycinnamate] | – | can be stabilized by addition of bis-ethylhexyloxyphenol methoxyphenyl triazine | can be stabilized by addition of octocrylene
CCCCC(CC)COC(=O)c1ccc(Nc2nc(Nc3ccc(C(=O)OCC(CC)CCCC)cc3)nc(Nc3ccc(C(=O)OCC(CC)CCCC)cc3)n2)cc1 (stereo not shown) [ethylhexyl triazone, Ethylhexyl triazone] | photostabilized in the presence of piperazine bi-aminobenzophenone | – | –
